{"source": "ChEMBL document CHEMBL1201862", "about": "“PubChem BioAssay data set” (2004)", "key": {"[1]": {"molecular_target": "Fructose-bisphosphate aldolase (Mycobacterium tuberculosis, UniProt P9WQA3)", "sequence (P9WQA3 whole entry)": "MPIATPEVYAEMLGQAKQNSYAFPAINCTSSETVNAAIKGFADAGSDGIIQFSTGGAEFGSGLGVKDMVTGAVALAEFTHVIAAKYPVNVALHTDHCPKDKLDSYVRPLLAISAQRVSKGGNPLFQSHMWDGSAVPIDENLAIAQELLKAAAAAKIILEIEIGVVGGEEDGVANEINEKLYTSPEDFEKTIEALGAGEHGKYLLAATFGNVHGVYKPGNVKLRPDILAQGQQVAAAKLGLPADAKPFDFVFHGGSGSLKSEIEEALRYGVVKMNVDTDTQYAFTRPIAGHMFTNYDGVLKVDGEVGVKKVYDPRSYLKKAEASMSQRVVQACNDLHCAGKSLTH", "experiment": "Fluorescence-based biochemical high throughput dose response assay for inhibitors of the fructose-bisphosphate aldolase (FBA) of M. tuberculosis.", "assay_type": "functional"}, "[2]": {"experiment": "Shn3 3'UTR reporter inhibitors, dose response, cell-based, Clone20 osteoblasts, firefly luciferase, cherry-picked (AID 624132)", "assay_type": "functional"}, "[3]": {"experiment": "HepG2 cell cytotoxicity, dose response, cytotoxicity control for Shn3 inhibitor project, CellTiter-Glo, cherry-picked (AID 624134)", "assay_type": "functional, cell-based"}, "[4]": {"experiment": "control 3'UTR Renilla luciferase suppression, dose response, counter-screen for Shn3 inhibitor project, cell-based, Clone20-Shn3RL, cherry-picked (AID 624133)", "assay_type": "functional"}, "[5]": {"molecular_target": "T1, Low molecular weight phosphotyrosine protein phosphatase (Homo sapiens, UniProt P24666)", "T1 sequence (P24666 whole entry)": "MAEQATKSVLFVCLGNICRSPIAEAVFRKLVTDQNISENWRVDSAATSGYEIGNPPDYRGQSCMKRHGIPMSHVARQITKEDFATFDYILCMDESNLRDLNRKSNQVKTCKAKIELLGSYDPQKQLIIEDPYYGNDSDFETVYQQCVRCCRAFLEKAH", "assay_type": "functional", "details": "read-out: IC50_Mean"}, "[6]": {"molecular_target": "T1, Low molecular weight phosphotyrosine protein phosphatase", "assay_type": "functional", "details": "read-out: IC50_Mean", "remark": "listed apart in the source"}, "[7]": {"experiment": "reduction of Shn3 3'UTR firefly luciferase signal, dose response, Schnurri-3 inhibitor project, cell-based, Clone20 osteoblasts, cherry-pick, set 2 (AID 720490);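 further: actives lower the luminescence signal as inhibitors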", "assay_type": "functional"}, "[8]": {"experiment": "inhibitors of control Renilla luciferase reporter, dose response, counter-screen for Shn3 3'UTR targeting project, Clone20-Shn3RL cells, dual-Glo, cherry-pick, set 2 (AID 720724)", "assay_type": "functional, cell-based", "details": "Dual-Go Shn3RL"}, "Paired box protein Pax-8": {"molecular_target": "Paired box protein Pax-8 (Homo sapiens, UniProt Q06710)", "sequence (Q06710 whole entry)": "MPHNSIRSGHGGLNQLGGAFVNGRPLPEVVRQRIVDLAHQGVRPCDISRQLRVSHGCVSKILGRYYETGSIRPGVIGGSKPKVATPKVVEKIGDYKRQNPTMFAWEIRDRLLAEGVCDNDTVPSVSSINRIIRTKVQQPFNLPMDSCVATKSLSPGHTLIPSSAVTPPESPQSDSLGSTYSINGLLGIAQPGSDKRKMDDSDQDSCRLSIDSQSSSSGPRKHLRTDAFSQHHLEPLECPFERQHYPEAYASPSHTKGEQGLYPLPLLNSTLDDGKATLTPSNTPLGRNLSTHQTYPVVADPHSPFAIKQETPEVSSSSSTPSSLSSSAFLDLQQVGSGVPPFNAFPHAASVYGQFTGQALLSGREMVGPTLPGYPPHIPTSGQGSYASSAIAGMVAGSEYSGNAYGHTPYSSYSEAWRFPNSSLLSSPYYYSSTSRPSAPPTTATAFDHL", "experiment": "inhibitors of PAX8-driven TPO luciferase reporter, dose response, RMG-I cells, cherry-pick (AID 687027);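 further: luciferase reporter driven by Pax8 target thyroperoxidase promoter measured by SteadyGlo luminescence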", "assay_type": "functional, cell-based"}, "[9]": {"experiment": "inhibitors of CMV-promoter luciferase reporter, dose response, counter-screen for Pax8 inhibitor project, cell-based, HEK293, luminescence, dry powder (AID 743020)", "assay_type": "functional"}, "[10]": {"experiment": "non-specific cell cytotoxicity, dose response, cytotoxicity control for PAX8 inhibitor project, plate reader, dry powder samples (AID 743021)", "assay_type": "functional, cell-based"}, "[11]": {"molecular_target": "T2, Scavenger receptor class B member 1 (Mus musculus, UniProt Q61009)", "T2 sequence (Q61009 whole entry)": "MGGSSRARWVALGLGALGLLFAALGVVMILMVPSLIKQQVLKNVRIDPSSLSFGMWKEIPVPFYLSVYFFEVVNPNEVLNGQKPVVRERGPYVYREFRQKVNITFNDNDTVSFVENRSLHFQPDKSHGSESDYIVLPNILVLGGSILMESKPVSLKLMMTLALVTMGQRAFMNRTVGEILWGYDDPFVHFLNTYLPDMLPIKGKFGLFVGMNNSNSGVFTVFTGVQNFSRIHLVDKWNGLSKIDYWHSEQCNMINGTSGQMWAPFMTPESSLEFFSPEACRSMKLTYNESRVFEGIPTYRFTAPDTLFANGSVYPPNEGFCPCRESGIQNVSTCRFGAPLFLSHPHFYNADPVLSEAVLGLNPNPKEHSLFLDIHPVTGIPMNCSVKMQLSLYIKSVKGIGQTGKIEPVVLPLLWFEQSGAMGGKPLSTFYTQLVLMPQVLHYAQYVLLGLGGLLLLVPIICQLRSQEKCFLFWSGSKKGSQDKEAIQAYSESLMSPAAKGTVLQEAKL", "experiment": "inhibitors of SR-BI dependent HDL uptake, dose response, ldlA[mSR-BI] CHO cells, fluorescence plate reader, dry powder, set 9 (AID 623880)", "assay_type": "functional, cell-based"}, "[12]": {"molecular_target": "T2, Scavenger receptor class B member 1", "experiment": "inhibitors of SR-BI-mediated HDL uptake, dose response, cell-based, ldlA[mSR-BI] CHO, DiI fluorescence, dry powder, set 10 (AID 624029)", "assay_type": "functional"}, "Protein Wnt-3a": {"molecular_target": "Protein Wnt-3a (Mus musculus, UniProt P27467)", "sequence (P27467 whole entry)": "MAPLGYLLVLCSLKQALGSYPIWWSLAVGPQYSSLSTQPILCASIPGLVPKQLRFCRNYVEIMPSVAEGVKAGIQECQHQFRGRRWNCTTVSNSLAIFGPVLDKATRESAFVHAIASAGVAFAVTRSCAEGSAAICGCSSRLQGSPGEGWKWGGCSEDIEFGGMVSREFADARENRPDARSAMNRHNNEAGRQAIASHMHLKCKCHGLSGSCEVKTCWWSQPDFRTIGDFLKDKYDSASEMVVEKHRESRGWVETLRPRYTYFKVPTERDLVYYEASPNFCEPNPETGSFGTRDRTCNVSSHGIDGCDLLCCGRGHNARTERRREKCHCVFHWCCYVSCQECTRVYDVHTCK", "experiment": "SAR analysis of small molecule antagonists of Gli-SUFU in a Wnt3a luminescent reporter assay.", "assay_type": "functional"}}, "note": "Activity calls are given as the source filed them."}
{"smiles": "Cc1ccc(-c2cnc(-c3ccccc3C(=O)O)o2)cc1", "values": [{"measurement": "IC50", "setting": "[1]", "result": "0.919 µM (active)"}]}
{"smiles": "COCCNc1nc(NCc2ccc(C(C)C)cc2)c2sccc2n1", "values": [{"measurement": "AC50", "setting": "[2]", "result": "3.95 µM (active)"}, {"measurement": "AC50", "setting": "[3]", "result": "47.4 µM (active)"}, {"measurement": "AC50", "setting": "[4]", "result": "17.5 µM (active)"}, {"measurement": "IC50", "setting": "[5]", "result": "13 µM (active)"}, {"measurement": "IC50", "setting": "[6]", "result": "24.5 µM (inactive)"}, {"measurement": "AC50", "setting": "[7]", "result": "3 µM (active)"}, {"measurement": "AC50", "setting": "[8]", "result": "33.2 µM (active)"}]}
{"smiles": "COc1ccccc1S(=O)(=O)N(C)C[C@H]1Oc2cc(C#CCC3CCCC3)ccc2S(=O)(=O)N([C@@H](C)CO)C[C@H]1C", "values": [{"measurement": "AC50", "setting": "Paired box protein Pax-8", "result": "9.5 µM (active)"}, {"measurement": "AC50", "setting": "[9]", "result": "55.2 µM (active)"}, {"measurement": "AC50", "setting": "[10]", "result": "51.9 µM (active)"}]}
{"smiles": "COCC(=O)N1CCc2cc(-c3csc(NC(=O)c4cc(OC)cc(OC)c4)n3)ccc21", "values": [{"measurement": "AC50", "setting": "[11]", "result": "0.00684 µM (active)"}, {"measurement": "AC50", "setting": "[12]", "result": "0.00538 µM (active)"}]}
{"smiles": "N#Cc1ccc(C(=O)Nc2cc(N3CCCCC3)ncn2)cc1", "values": [{"measurement": "IC50", "setting": "Protein Wnt-3a", "result": "> 21.8 µM (inactive)"}]}
